Data published in a melting point compilation (Tetko et al.; mined from patent text by program, amines drawn as free bases though some values may be those of a salt).

SMILES	melting point
CCCCCCCCCCC#Cc1c2ccccc2c2ccc3c(C#CCCCCCCCCCC)c4ccccc4c4ccc1c2c34	129 to 130 °C
CNC(=O)N1CCc2[nH]cnc2C1c1cccs1 (configuration not stated)	230 °C
COc1ccc(C2(c3ccc(OC)cc3)C(c3ccccc3)C2(Cl)Cl)cc1 (configuration not stated)	124 to 125 °C
O=C1NCN2CCC1CC2	125 to 126 °C
COc1ccc2c(c1)CC[C@@H]1[C@@H]2CC[C@@]2(C)[C@H]1CCC21C=CCO1 (some centres not stated)	159 to 161 °C
CC1(C)COP(=O)(Cc2ccc([N+](=O)[O-])cc2)OC1	176 to 177 °C
O=C(O)C1=Cc2cc(C#Cc3ccccc3)ccc2NC1C(F)(F)F (configuration not stated)	218 to 219 °C
CSc1ncc(Cc2cccnc2)c(=O)[nH]1	247 to 249 °C
CCC1NCCc2ccc(NC(=N)c3cccs3)cc21 (configuration not stated)	142 to 144 °C
O=C1c2ccccc2C(=O)N1CCCN(c1ccccc1)c1ccccn1	103 to 105 °C
Cc1cc(C)c2c(c1O)C(=O)C1CCCCC21 (configuration not stated)	64 to 65 °C
CCOC(=O)c1cc(-c2csc(C(=O)OCC)n2)[nH]n1	104 to 106 °C
CSC(C[C@@H]1CC(=O)N1[Si](C)(C)C(C)(C)C)(SC)SC	61 to 62 °C
CCOC(=O)c1sc(C)nc1SC(=O)N(C)C	84.5 to 85.5 °C
Cc1nc(NC(=O)c2ccccc2)sc1C(=O)NCc1cccc(F)c1	216 to 217 °C
O=C(OC1CCCCC1)c1ncn2c1[C@@H]1CCCN1C(=O)c1c-2ccc(F)c1Cl	163 to 166 °C
Cc1nc(-n2nnc(C(=O)NCc3ccccc3)c2C)sc1C(=O)NCc1ccccc1	183 to 186 °C
COC1C(CO)OC(n2c3ccc(CO)cc3c3c4c(c5c6cc(CO)ccc6[nH]c5c32)C(=O)NC4=O)C(O)C1O (configuration not stated)	> 300 °C
BrCc1ccc2sc3ccc4ccccc4c3c2c1	202 to 203 °C
O=C1Cc2c(OCc3ccccc3)cc(OCc3ccccc3)cc2O[C@@H]1c1ccc(OCc2ccccc2)c(OCc2ccccc2)c1	144 °C
CC(C)c1ccc(-c2cccc(-c3cccc(C(=O)O)c3)n2)cc1	215 to 216 °C
COc1cc(OC(C)C)ccc1-c1nc(-c2ccc(OC(C)C)cc2O)nc(-c2ccc(OC(C)C)cc2O)n1	185 to 188 °C
CCCc1cc(-c2cccs2)n[nH]c1=O	171 to 174 °C
Cc1ccc(-c2ccccc2-n2c(C)n[nH]c2=O)cc1	102 to 104 °C
Cc1ccc(S(=O)(=O)OCCC2CCN(C(c3ccccc3)(c3ccccc3)c3ccccc3)CC2)cc1	176 °C

SMILES	melting point
NS(=O)(=O)c1c(Cl)nc2n1CCS2(=O)=O	246 to 247 °C
O=C(OCc1ccccc1)N1CC(O)(C(=O)O)C1	134 to 136 °C
O=NCNC1=Nc2ccsc2C(c2ccccc2)=NC1	156 to 159 °C
CNc1ncnc2c1c(=O)n(C)c(=O)n2C	178 to 179 °C
N#CCOC(=O)c1cc2ccccc2o1	74 to 76 °C
Cc1cc2[nH]c3ccccc3n2n1	250 to 252 °C
NS(=O)(=O)c1ccc(-c2nc(C(F)(F)F)[nH]c2-c2ccc(F)cc2)cc1	259 to 260 °C
CCCCCCC#Cc1csc(C=O)c1	2 °C
CCc1nnc(-c2ccc(N)cc2)n1-c1ccc(OC)cc1	210 °C
O=C(O)/C=C(/c1ccccc1)c1ccc2ccccc2c1	170 to 172 °C
O=C1NC(=O)c2c(Br)c(Sc3ccc(Cl)cc3)c(Sc3ccc(Cl)cc3)c(Br)c21	310 to 315 °C
O=C(O)CC1(CNC(=O)OC(OC(=O)c2ccccc2)c2ccccc2)CCCCC1 (configuration not stated)	75.5 to 76 °C
O=C(Nc1ccc2[nH]c(=O)oc2c1)C(=O)N1CCC(Cc2ccc(C(F)(F)F)cc2)CC1	217 °C
C=CCn1c(=O)c2cnc(-n3ccnc3)nc2n(C(C)C)c1=O	158 to 160 °C
CC(=O)SCC(CSC(C)=O)C(=O)N(CC(=O)O)C1Cc2ccccc2C1	114 to 115 °C
O=S(=O)(Nc1ccc(C(O)(C(F)(F)F)C(F)(F)F)cc1)c1ccccc1	117 to 118 °C
Nc1cc(C(=O)O)cc(NCc2ccccc2)c1-c1ccccc1	179 to 181 °C
O=S(=O)(Nc1ccccc1CO)C(F)(F)F	60 to 61 °C
O=C1Nc2ccc(-c3cccc(Cl)c3)cc2C(C2CC2)(C2CC2)O1	198 to 200 °C
CCCC1(C(=O)O)c2ccccc2-c2ccccc21	120 to 122 °C
COc1ccc(S(=O)(=O)N2CCC3(C=Cc4ccccc43)CC2)cc1	181 to 183 °C
O=C(Nc1ccc(N2CCCCC2)cc1)N(C[C@@H]1CCC[C@H](CN(C(=O)Nc2ccc(N3CCCCC3)cc2)C2CCCCC2)C1)C1CCCCC1	174 to 178 °C
CC(=O)NCc1ccc(CN2CCN(c3ccncc3)CC2)cc1	164 to 166 °C
Cc1cc(Oc2ccc(N)cc2C(F)(F)F)n[nH]1	143 to 145 °C

More lines, now with the values ahead:

melting point	SMILES
109 to 111 °C	COc1ccc(CC(=O)c2c(OC)cc(OC)cc2OC)c(OC)c1
116 °C	CCSc1c(C(F)(F)F)nn(-c2c(Cl)cc(C(F)(F)F)cc2Cl)c1N
219 to 221 °C	Cc1ccc2c(c1)c(Sc1ccc(Cl)cc1)c(C)n2CC(=O)O
149 to 152 °C	CCCOC(=O)C1=C(C)NC(CO)=C(C(=O)OC)C1c1ccccc1C#N (configuration not stated)
127 to 129 °C	CCN(CC)S(=O)(=O)c1ccc(-c2cnc3[nH]c(CCc4cc(OC)ccn4)nc3c2)cc1
130 to 135 °C	CCOC(=O)CN=C(c1ccccc1)c1cc(Cl)ccc1N
143 to 146 °C	CCOC1Nc2c(ccc(OC)c2OC(C)=O)C(=O)N2CCCC12 (configuration not stated)
54 to 57 °C	O=C(O)Cc1ccccc1Sc1ccc(F)c(F)c1
169 to 171 °C	CC(=O)n1nc(-c2c(C)cc(C)c([N+](=O)[O-])c2C)n2nc(C(C)(C)C)cc12
230 °C	CCCC(=O)Nc1n[nH]c2cc(Cl)c(-c3ccc(OCc4ccccc4)cc3)cc12
57 to 59 °C	CCOC(=O)c1cc(Cc2cccc3ccccc23)sc1NCC(C)C
53 to 54.5 °C	CN1Cc2ccccc2CC1c1ccc(C(C)(C)C)cc1 (configuration not stated)
160 °C	CCCC1(C(C)C)NC(=S)N(c2cc(Cl)cc(Cl)c2)C1=O (configuration not stated)
88.1 to 92.2 °C	CCN1C(=O)C(C)(C)C(=O)N(C)c2cc(OCCCN(CCc3cccnc3)C(=O)c3ccncc3)ccc21
138 to 140 °C	CCN(C(=O)Cc1ccc(S(C)(=O)=O)cc1)C1CCN(C(=O)OC(C)(C)C)CC1
177 to 178 °C	CN(c1nc(N)no1)c1c(Cl)cccc1Cl
210 to 212 °C	COc1cc(O)ccc1C=CC(=O)c1ccc(O)cc1
177 °C	CC(C)(C)n1nc(-c2ccoc2)c(C(N)=O)c1N
135 to 141 °C	CC(C)(C)c1cccc(S(=O)(=O)n2c(CCCC(=O)O)cc3cc(C(F)(F)F)ccc32)c1
68 to 70 °C	CCOC(=O)Cn1[nH]c(=O)c2ccccc2c1=O
193 to 195 °C	O=C(c1ccc2nc(C3CC3)n(Cc3ccccc3Cl)c2c1)N1CCOCC1
241 to 242 °C	COc1cc(C(=O)O)ccc1Cn1cnc2ccc(NC(=O)OC3CCCC3)cc21
131 to 133 °C	OCCCc1cc(-c2ccc(Cl)cc2)n(-c2ccc(Cl)nn2)n1
218 °C	CC(C)(C)OC(=O)N1CCC(OCc2ccccc2)C1CC(=O)Cn1cnc2cccc(C(F)(F)F)c2c1=O (configuration not stated)

melting point	SMILES
183 to 185 °C	Cc1ccccc1-c1c(C(=O)N(C)Cc2cc(C(F)(F)F)cc(C(F)(F)F)c2)n(C)c(=O)c2cccnc12
104 to 106 °C	COC(=O)[C@H](c1ccccc1Cl)N1CCc2sc(OC(=O)COc3ccccc3)cc2C1
111 to 142 °C	COCCNC(=O)CN1CCN(Cc2ccc3c(c2)NC(=O)C(C)O3)CC1 (configuration not stated)
162 to 165 °C	CC(C)c1ccc2c(c1)c(Sc1ccccc1)c(CC(C)(C)C(=O)O)n2Cc1ccc(Cl)cc1
77 to 81 °C	O=C(O)CCSc1ccc(CNC(=O)C2Cc3ccccc3N2S(=O)(=O)c2ccc(-c3cccc(C(F)(F)F)c3)cc2)cc1 (configuration not stated)
104 to 105 °C	CCOC(=O)c1cnn(-c2ccc(Br)cc2)c1C#N
80 to 89 °C	CC(C)NC(=O)N1C2=NC(C)(C)N(C(C)C)C(=O)N2c2ccccc21
182 to 188 °C	Cn1ccc2cc(N3Cc4ccc(OCC(F)(F)F)cc4C3=O)ccc21
177 to 179 °C	CC(O)(CCN1C(=O)c2ccccc2C1=O)c1ccc(-c2ccc(Cl)cc2)cc1 (configuration not stated)
171 to 175 °C	COc1c(O)cc(C(C)(C)C)c(O)c1C(=O)Nc1ccc(S(=O)(=O)C(F)(F)F)cc1Cl
69.5 to 72.5 °C	CCOC(=O)c1ccc(NCCCCCCc2ccccc2)cc1
74 to 75 °C	Cc1cc([N+](=O)[O-])c(OCc2ccccc2)c(Cl)c1C
143 to 147 °C	Cc1nnsc1C(=O)Nc1ccc(-n2nc(C(F)(F)F)c(Cl)c2C2CC2)c(F)c1
127 to 129 °C	CCc1ccc(-c2ccc3c(c2)C=C(C(=O)Nc2ccc(CN(C)C4CCOCC4)cc2)CCN3C)cc1CC
76.3 °C	O=C(c1ccccc1Cl)c1cccnc1Br
161 °C	CCOC(=O)C1=C(C)OC(N)=C(C(=O)OCC)C1c1cccc([N+](=O)[O-])c1 (configuration not stated)
152 to 153 °C	CCCCOc1cc(/C=C/S(=O)(=O)NC(=O)OC(C)(C)C)n(Cc2ccc(Cl)cc2Cl)n1
250 to 252 °C	CCN(CC)Cc1ccc(CN2C(=O)COc3c(C)cc(C=C4SC(=S)NC4=O)cc32)cc1
136 to 139 °C	CC(C)(C)c1cc(SCCOC(=O)c2cc(C(C)(C)C)c(O)c(C(C)(C)C)c2)cc(C(C)(C)C)c1O
168 to 170 °C	COc1cccc(-c2c(NC(=O)Nc3c(C(C)C)cccc3C(C)C)c(=O)n(CCOc3ccccc3)c3ncccc23)c1
120 to 121 °C	CCOc1nn(-c2ccc(C(F)(F)F)cn2)cc1CCCOc1ccc(CCC(=O)O)c(OC)c1
157 to 159 °C	CN1CCN(C2=Cc3ccccc3Sc3cc(Cl)c(Cl)cc32)CC1
76 °C	CCOC(=O)Nc1ccc(OC)nc1
78 to 81 °C	CCOC(=O)c1cc(=O)cc(-c2ccccc2OC)o1
